In BindingDB's records for patent US20240182453 (Boehringer Ingelheim International, 2024):

Molecular target: Metabotropic glutamate receptor 4 (Homo sapiens, UniProt Q14833)
Assay: In Vitro Testing of mGluR4 Potency
Method: The in vitro activity of the compounds according to the invention may be investigated as follows:[0111]The HEK293 cell overexpressing the human metabotropic Glutamate 4 receptor are thawed at 37 C. and immediately diluted with cell culture medium. After centrifugation, the cell pellet is re-suspended in medium and then distributed from a stirred spinner flask into the wells of the assay plate. The plates are incubated for one hour at room temperature before they are incubated for 24 hours at 37 C./5% CO2. After washing the cells in the plate three times with 80 uL HBSS/HEPES buffer (10 uL buffer remained in the wells after washing), 5 uL per well of compounds diluted in HBSS/HEPES buffer containing 0.2% BSA (final concentration: 0.1%) and 1 mM IBMX (final concentration: 0.5 mM) are added to the wells of the assay plate. Thereafter 5 uL per well of L-Glutamic acid (final concentration: 10 uM), forskolin (final concentration: 1 uM) and 1 mM IBMX (final concentration: 0.5 mM) dissolved in HBSS/HEPES buffer containing 0.2% BSA (final concentration: 0.1%) are added to the assay plate (final DMSO concentration: 1%). […] The emission at 615 nm and 665 nm (Excitation wavelength: 320 nm) are measured on the EnVision reader (Perkin Elmer). The ratio between the emission at 665 nm and 615 is calculated by the reader. […]

Chain of Metabotropic glutamate receptor 4 (Q14833 whole entry): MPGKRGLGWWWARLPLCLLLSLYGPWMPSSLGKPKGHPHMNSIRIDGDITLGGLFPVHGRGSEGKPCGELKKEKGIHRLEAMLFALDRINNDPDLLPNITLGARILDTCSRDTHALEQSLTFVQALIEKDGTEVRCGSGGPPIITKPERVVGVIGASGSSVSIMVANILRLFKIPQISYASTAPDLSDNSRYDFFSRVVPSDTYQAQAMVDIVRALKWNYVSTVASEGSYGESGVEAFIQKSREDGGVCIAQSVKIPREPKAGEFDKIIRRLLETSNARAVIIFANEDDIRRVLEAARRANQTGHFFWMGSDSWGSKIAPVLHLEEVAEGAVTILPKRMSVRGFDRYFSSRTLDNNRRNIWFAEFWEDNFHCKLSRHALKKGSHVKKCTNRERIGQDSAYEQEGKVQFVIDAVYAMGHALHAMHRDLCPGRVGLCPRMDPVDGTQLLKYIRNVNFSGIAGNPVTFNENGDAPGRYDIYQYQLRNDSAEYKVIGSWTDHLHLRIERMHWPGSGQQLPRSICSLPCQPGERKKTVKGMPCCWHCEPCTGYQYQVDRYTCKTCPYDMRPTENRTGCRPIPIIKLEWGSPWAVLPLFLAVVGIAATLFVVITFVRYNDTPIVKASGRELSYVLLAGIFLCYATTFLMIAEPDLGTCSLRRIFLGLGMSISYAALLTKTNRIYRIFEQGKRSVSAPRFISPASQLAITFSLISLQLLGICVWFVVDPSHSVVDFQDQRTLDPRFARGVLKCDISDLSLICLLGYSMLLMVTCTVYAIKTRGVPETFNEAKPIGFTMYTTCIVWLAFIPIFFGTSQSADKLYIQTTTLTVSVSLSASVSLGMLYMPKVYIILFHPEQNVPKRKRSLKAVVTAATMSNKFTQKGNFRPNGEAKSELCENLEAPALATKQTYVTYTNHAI

IC50: 23 nM
Compound: Cc1cnc(C(=O)N[C@H](c2nc3cc(F)c(F)cc3n2C)C2CC2)cn1 [US20240182453, Example 66]
